Data: PubChem BioAssay (NCI)
“And” between values parts separate entries of the source, which are not always exact repeats. Equal entries are not always repeated.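 Method: 48-hour compound exposure of cells in 96-well plates, five concentrations, linear interpolation of endpoints. GI50 is the concentration that inhibits growth by half. TGI marks complete inhibition of growth.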

Experiments:
Test in all cases: growth of human tumour cells (NCI), 48 h
SF-268 CNS = system: SF-268 CNS
UO-31 renal = system: UO-31 renal
RXF 393 renal = system: RXF 393 renal
OVCAR-4 ovarian = system: OVCAR-4 ovarian
UACC-257 melanoma = system: UACC-257 melanoma
HCC-2998 colon = system: HCC-2998 colon
RPMI-8226 leukemia = system: RPMI-8226 leukemia
SR leukemia = system: SR leukemia
U251 CNS = system: U251 CNS
SK-MEL-5 melanoma = system: SK-MEL-5 melanoma

| SMILES | GI50 (SF-268 CNS) [µM] | TGI (SF-268 CNS) [µM] | GI50 (UO-31 renal) [µM] | TGI (UO-31 renal) [µM] | GI50 (RXF 393 renal) [µM] | TGI (RXF 393 renal) [µM] | GI50 (OVCAR-4 ovarian) [µM] | TGI (OVCAR-4 ovarian) [µM] | GI50 (UACC-257 melanoma) [µM] | TGI (UACC-257 melanoma) | GI50 (HCC-2998 colon) [µM] | TGI (HCC-2998 colon) [µM] | GI50 (RPMI-8226 leukemia) [µM] | TGI (RPMI-8226 leukemia) [µM] | GI50 (SR leukemia) [µM] | TGI (SR leukemia) [µM] | GI50 (U251 CNS) [µM] | TGI (U251 CNS) [µM] | GI50 (SK-MEL-5 melanoma) [µM] | TGI (SK-MEL-5 melanoma) |
| --- | --- | --- | --- | --- | --- | --- | --- | --- | --- | --- | --- | --- | --- | --- | --- | --- | --- | --- | --- | --- |
| Oc1ccc(Cl)cc1CNc1nc2ccccc2[nH]1 | 14.3 | 30.2 | 4.73 | 19.1 | 10.3 | 23.9 | 11.4 | 37.5 | 14.7 | 29.4 µM | 16.5 | 32 | 10 | 49.5 | 13.4 | 59.4 | 11.7 | 24.5 | 13 | 25.6 µM |
| CC(C)CCN[C@@H]1CCc2cc(O)c(N3CC(=O)NS3(=O)=O)c(F)c2C1 | > 100 | > 100 | 16.8 | > 100 | 0.812 | 8.01 | > 100 | > 100 | > 100 | > 100 µM | > 100 | > 100 | > 100 | > 100 | 1.78 | > 100 | > 100 | > 100 | > 100 | > 100 µM |
| CC(C)COC(=O)c1ccc2[nH]c(O)c(C=Nc3ccc(S(N)(=O)=O)cc3)c2c1 | 1.22 | 4.45 | 2.44 | 10.2 | 0.747 | 1.61 | 2.39 | 7.79 | 3.99 | 9.44 µM | 3.27 | 9.03 | 2.55 | 18.8 | 0.36 | 6.43 | 0.879 | 4.13 | 1.65 | 4.46 µM |
| O=C1c2nc3n(c2C(=O)c2c1nc1n2CCC1)CCC3 |  | 32 |  | 37.4 |  | 9.59 | 5.45 | 14.9 | 2.47 | 5.6 µM and 5.72 µM |  | 21 | 9.83 | > 100 | 3.58 | > 40.6 |  | 34 | 1.68 | 3.05 µM and 2.78 µM |
| Nn1c(N=Nc2c(O)[nH]c3c(Cl)cc(Cl)cc23)n[nH]c1=S |  | > 100 |  | > 100 |  | > 100 |  | > 100 |  | > 100 µM |  | > 100 |  | > 100 |  | > 100 |  | > 100 |  | > 100 µM |
| CN(C)CCN1C(=O)c2cccc3cccc(c23)C1=O | 18.9 | > 25 | 11 | > 25 | 13.4 | > 25 | > 25 | > 25 | > 25 | > 25 µM | > 25 | > 25 | 16.6 | > 25 | 5.18 | 18.3 | 19.8 | > 25 | 18.4 | > 25 µM |
| NCCSCCc1ccccc1 |  | > 100 |  | > 100 |  | > 100 |  | > 100 |  | > 100 µM |  | > 100 |  | > 100 |  | > 100 |  | > 100 |  | > 100 µM |
| COC1=C2CC(C)CC(OC)C(O)C(C)/C=C(\C)C(OC(N)=O)C(OC)/C=C\C=C(/C)C(=O)NC(=C(/C=N/N3CCCCC3)C1=O)C2=O (stereo not drawn) |  | 25.1 |  | 23.4 |  | 14.3 |  | 19.3 |  | 27.7 µM |  | 18.9 |  | 42 |  | 7.48 |  | 20.8 |  | 29.9 µM |
| CN(C)C(=S)/N=c1\ss/c(=N\S(=O)(=O)c2ccccc2)n1N(C)C |  | > 100 |  | > 100 |  | 85 |  | > 100 |  | > 100 µM |  | > 100 |  | > 100 |  | > 100 |  | > 100 |  | > 100 µM |
| CCc1nc(N)nc(N)c1-c1ccc(Cl)c(N=CN(C)C)c1 |  | > 100 |  | > 100 |  | > 100 |  | > 100 |  | > 100 µM |  | > 100 |  | > 100 |  | > 83.4 |  | > 100 |  | > 100 µM |
| O=C(O)CCSC(=O)Nc1ccc(N=Nc2ccccc2)cc1 |  | > 100 |  | > 100 |  | > 100 |  | > 100 |  | > 100 µM |  | > 100 |  | > 100 |  | > 100 |  | > 100 |  | > 100 µM |
| O=C(NS(=O)(=O)c1ccccc1)C(Cc1ccccc1)C(Cc1ccccc1)C(=O)NS(=O)(=O)c1ccccc1 (stereo not drawn) |  | > 100 |  | > 100 |  | > 100 |  | > 100 |  | > 100 µM |  | > 100 |  | > 100 |  | > 100 |  | > 100 |  | > 100 µM |
| CCCNc1nc2ccccc2c2c1S(=O)(=O)c1ccc(Cl)cc1C2=O | 1.35 | > 50 | 1.11 | > 50 | 0.263 | 1.57 | 0.95 | > 50 | 2.15 | > 50 µM | 1.62 | 34.4 | 0.345 | 2.86 | 0.79 | > 50 | 1.6 | > 50 | 1.51 | > 50 µM |
| c1ccc(CNc2nc(Nc3ccccc3)nc3ccccc23)cc1 | 3.01 | 9.3 | 2.1 | 8.53 | 1.65 | 3.2 | 2.05 | 8.04 | 1.78 | 3.78 µM | 1.99 | 4.43 | 1.41 | 4.42 | 2.28 | 6.07 | 1.52 | 2.91 | 1.41 | 2.76 µM |
| CCC(Oc1ccc(OC)c2ccccc(=O)c12)C(=O)O (stereo not drawn) |  | > 100 |  | > 100 |  | > 100 |  | > 100 |  | > 100 µM |  | > 100 |  | > 100 |  | > 100 |  | > 100 |  | > 100 µM |
| Cc1cc(OCc2nnc3n2N=C(c2ccc(Cl)cc2Cl)CS3)ccc1Cl | 73.4 | > 100 | 34 | > 100 | 52.2 | > 100 | 59.6 | > 100 | 42.1 | 93.2 µM | 68.6 | > 100 | 40.6 | > 100 | 43.3 | > 100 | 71.3 | > 100 | 25.6 | > 100 µM |
| C=C1c2c(Cl)ccc(O)c2C(O)=C2C(=O)[C@]3(O)C(O)=C(C(N)=O)C(=O)[C@@H](N(C)C)[C@@H]3[C@@H](O)[C@H]12 | 1.41 | 7.16 | 1.19 | 6.22 | 0.534 | 2.82 | 0.347 | 9.66 | 0.888 | 3.61 µM | 1.32 | 5.61 | 1.1 | 4.25 | 1.58 | > 50 | 0.949 | 4.09 | 0.801 | 1.57 µM |
| Clc1nc(Cl)c2ncn(Cc3ccc(Cn4cnc5c(Cl)nc(Cl)nc54)cc3)c2n1 | 3.4 | 23.4 | 5.01 | 20.1 |  | 0.555 | 13.6 | 28.6 | 4.87 | 30.5 µM | 11 | 24 |  | 7.07 | 0.287 | 8.08 | 13.2 | 27.7 | 2.13 | 20.8 µM |
| CO[C@H]1CC(c2ccc[nH]2)=N[C@]12O[C@@H](C)C[C@@H]1CCCCCCCc3ccc([nH]3)[C@H]12 | 1.65 | > 32.2 | 0.932 | 4.2 | 0.807 | 7.53 | 0.508 | 22.2 | 1.33 | 7.63 µM | 0.814 | 5.54 | 0.693 | 2.96 | 0.72 | 4.93 | 1.14 | 17.3 | 0.527 | 1.17 µM |
| O=C1NC(=O)C2C1N(Cc1ccccc1)C(=O)N2Cc1ccccc1 (stereo not drawn) |  | > 100 |  | > 100 |  | > 100 |  | > 100 |  | > 100 µM |  | > 100 |  | > 100 |  | > 100 |  | > 100 |  | > 100 µM |
| O=C(NO)c1ccc(O)c(O)c1 |  | > 100 |  | > 100 |  | > 100 |  | > 100 |  | > 100 µM |  | > 100 |  | > 100 |  | > 100 |  | > 100 |  | > 100 µM |
| N#Cc1cc(S(=O)(=O)Nc2nc3ccccc3s2)c(SCc2ccccc2)cc1Cl | 24.7 | 78.5 | 17.8 | 42.1 | 20.6 | 45.4 | 34.4 | > 100 | 15.4 | 35.2 µM | 17.7 | 36.3 | 27.9 | > 100 | 37.7 | > 100 | 19.2 | 38.2 | 15.4 | 31 µM |
| COc1ccc2nc(NC(=O)c3cccnc3Nc3cc(OC)c(OC)c(OC)c3)sc2c1 | 4.43 | 18.9 | 9.3 | 27.2 | 2.6 | 8.85 | 15 | 32.6 | 14.6 | 29.6 µM | 17 | 39.4 | 9.94 | 34.9 | 2.31 | 16.1 | 7.1 | 21.7 | 11.3 | 47.7 µM |
| CCN(CC)CCOc1ccc(C(=O)/C=C\c2ccc(Cl)cc2Cl)cc1 | 8.41 | 23.7 | 4.06 | 17.2 | 5.13 | 18.1 | 3.82 | 16.6 | 4.51 | 15.2 µM | 2.18 | 4.65 | 1.94 | 6.34 | 1.69 | 5.34 | 7.16 | 21.3 | 3.14 | 12.3 µM |
| O=C(O)C1=C(C(=O)Nc2ccc(NC(=O)C3=C(C(=O)O)C4C=CC3C4)cc2)C2C=CC1C2 |  | > 100 |  | > 100 |  | > 100 |  | > 100 |  | > 100 µM |  | > 100 |  | > 100 |  | > 100 |  | > 100 |  | > 100 µM |
